For 20 compounds, IC50 results are on record in patent US20080269241A1, “BICYCLIC AMINOPROPYL TETRAHYDRO-PYRAZOLO-PYRIDINE MODULATORS OF CATHEPSIN S” (priority 2007, published 2008).

The assay deals with T1, human cathepsin S (CatS) (Homo sapiens, UniProt P25774).
T1 construct: made in house; host or cells: baculovirus system (insect cells)
T1 sequence (P25774 115-331): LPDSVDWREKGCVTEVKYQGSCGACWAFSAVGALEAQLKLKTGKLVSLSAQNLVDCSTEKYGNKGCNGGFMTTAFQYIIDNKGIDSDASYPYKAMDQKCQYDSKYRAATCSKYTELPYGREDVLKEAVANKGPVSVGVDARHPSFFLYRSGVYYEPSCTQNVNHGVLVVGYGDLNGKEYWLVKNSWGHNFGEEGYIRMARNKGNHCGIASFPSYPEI
As to the kind of experiment: Recombinant human cathepsin S (CatS) fluorogenic substrate inhibition assay. Type of assay: biochemical. The following applies: recombinant human CatS, 10 μM Z-Valine-Valine-Arginine-AMC, pH 5.0; average of results obtained; read-out: CatS IC50. The protocol: Recombinant human cathepsin S (CatS) was expressed in the baculovirus system and purified in one step with a thiopropyl-sepharose column. […] The assay is run in 150 mM sodium acetate pH 5.0 containing 1.5 mM DTT and 150 mM NaCl. […] Measurements are taken every min for 20 min. The rate is calculated from the slope of the increase in fluorescence and the percent inhibition is calculated from this.
For the compound `CS(=O)(=O)N1CCc2c(c(-c3ccc(Cl)c(CNC(=O)c4ccc(F)cc4)c3)nn2CC(O)CN2CCC(N3CCCC3=O)CC2)C1` (centres unmarked) [Example 1, N-[2-Chloro-5-(1-{2-hydroxy-3-[4-(2-oxo-pyrrolidin-1-yl)-piperidin-1-yl]-propyl}-5-methanesulfonyl-4,5,6,7-tetrahydro-1H-pyrazolo[4,3-c]pyridin-3-yl)-benzyl]-4-fluoro-benzamide], the IC50 came to 20 nM.

`CS(=O)(=O)N1CCc2c(c(-c3ccc(C(F)(F)F)c(CNC(=O)c4ccc(Cl)s4)c3)nn2CC(O)CN2CCC(N3CCCC3=O)CC2)C1` (centres unmarked) [Example 6, 5-Chloro-thiophene-2-carboxylic acid 5-(1-{2-hydroxy-3-[4-(2-oxo-pyrrolidin-1-yl)-piperidin-1-yl]-propyl}-5-methanesulfonyl-4,5,6,7-tetrahydro-1H-pyrazolo[4,3-c]pyridin-3-yl)-2-trifluoromethyl-benzylamide]: the IC50 amounted to 30 nM.

`CS(=O)(=O)N1CCc2c(c(-c3ccc(Cl)c(CNC(=O)c4ccc(F)cc4)c3)nn2CC(O)CN2CCC(N3CCCC3)CC2)C1` (centres unmarked) [Example 14, N-(2-Chloro-5-{1-[2-hydroxy-3-(4-pyrrolidin-1-yl-piperidin-1-yl)-propyl]-5-methanesulfonyl-4,5,6,7-tetrahydro-1H-pyrazolo[4,3-c]pyridin-3-yl}-benzyl)-4-fluoro-benzamide]: the IC50 was 100 nM.

`CS(=O)(=O)N1CCc2c(c(-c3ccc(C(F)(F)F)c(CNC(=O)c4ccc(F)cc4)c3)nn2CC(O)CN2CCC(N3CCCC3=O)CC2)C1` (centres unmarked) [Example 17, 4-Fluoro-N-[5-(1-{2-hydroxy-3-[4-(2-oxo-pyrrolidin-1-yl)-piperidin-1-yl]-propyl}-5-methanesulfonyl-4,5,6,7-tetrahydro-1H-pyrazolo[4,3-c]pyridin-3-yl)-2-trifluoromethyl-benzyl]-benzamide]: the IC50 turned out to be 20 nM.

Consider `CC(C)=CC(=O)NCc1cc(-c2nn(CC(O)CN3CCC(N4CCOCC4)CC3)c3c2CN(S(C)(=O)=O)CC3)ccc1C(F)(F)F` (centres unmarked) [Example 30, 3-Methyl-but-2-enoic acid 5-{1-[2-hydroxy-3-(4-morpholin-4-yl-piperidin-1-yl)-propyl]-5-methanesulfonyl-4,5,6,7-tetrahydro-1H-pyrazolo[4,3-c]pyridin-3-yl}-2-trifluoromethyl-benzylamide], for which the IC50 is 40 nM.

On to `CC(C)CC(=O)NCc1cc(-c2nn(CCCN3CCC(N4CCCC4=O)CC3)c3c2CN(S(C)(=O)=O)CC3)ccc1C(F)(F)F` [Example 36, N-[5-(5-Methanesulfonyl-1-{3-[4-(2-oxo-pyrrolidin-1-yl)-piperidin-1-yl]-propyl}-4,5,6,7-tetrahydro-1H-pyrazolo[4,3-c]pyridin-3-yl)-2-trifluoromethyl-benzyl]-3-methyl-butyramide], for which the IC50 worked out at 80 nM.

As to `CS(=O)(=O)N1CCc2c(c(-c3ccc(C(F)(F)F)c(CNC(=O)Cc4ccccc4)c3)nn2CCCN2CCC(N3CCCC3=O)CC2)C1` [Example 37, N-[5-(5-Methanesulfonyl-1-{3-[4-(2-oxo-pyrrolidin-1-yl)-piperidin-1-yl]propyl}-4,5,6,7-tetrahydro-1H-pyrazolo[4,3-c]pyridin-3-yl)-2-trifluoromethyl-benzyl]-2-phenyl-acetamide], the IC50 stood at 480 nM.

Take `CN(C)CC(=O)NCc1cc(-c2nn(CCCN3CCC(N4CCCC4=O)CC3)c3c2CN(S(C)(=O)=O)CC3)ccc1C(F)(F)F` [Example 38, 2-Dimethylamino-N-[5-(5-methanesulfonyl-1-{3-[4-(2-oxo-pyrrolidin-1-yl)-piperidin-1-yl]-propyl}-4,5,6,7-tetrahydro-1H-pyrazolo[4,3-c]pyridin-3-yl)-2-trifluoromethyl-benzyl]-acetamide]: the IC50 came to 1540 nM.

As for `CC(C)=CC(=O)NCc1cc(-c2nn(CCCN3CCC(N4CCCC4=O)CC3)c3c2CN(S(C)(=O)=O)CC3)ccc1C(F)(F)F` [Example 42, 3-Methyl-but-2-enoic acid 5-(5-methanesulfonyl-1-{3-[4-(2-oxo-pyrrolidin-1-yl)-piperidin-1-yl]-propyl}-4,5,6,7-tetrahydro-1H-pyrazolo[4,3-c]pyridin-3-yl)-2-trifluoromethyl-benzylamide], the IC50 was 30 nM.

As to `CC(C)OC(=O)NCc1cc(-c2nn(CCCN3CCC(N4CCCC4=O)CC3)c3c2CN(S(C)(=O)=O)CC3)ccc1C(F)(F)F` [Example 43, [5-(5-Methanesulfonyl-1-{3-[4-(2-oxo-pyrrolidin-1-yl)-piperidin-1-yl]-propyl}-4,5,6,7-tetrahydro-1H-pyrazolo[4,3-c]pyridin-3-yl)-2-trifluoromethyl-benzyl]-carbamic acid isopropyl ester], the IC50 stood at 80 nM.

Take `CC(C)NC(=O)NCc1cc(-c2nn(CCCN3CCC(N4CCCC4=O)CC3)c3c2CN(S(C)(=O)=O)CC3)ccc1C(F)(F)F` [Example 44, 1-Isopropyl-3-[5-(5-methanesulfonyl-1-{3-[4-(2-oxo-pyrrolidin-1-yl)-piperidin-1-yl]-propyl}-4,5,6,7-tetrahydro-1H-pyrazolo[4,3-c]pyridin-3-yl)-2-trifluoromethyl-benzyl]-urea]: the IC50 stood at 160 nM.

As to `CS(=O)(=O)N1CCc2c(c(-c3ccc(C(F)(F)F)c(CNC(=O)N4CCOCC4)c3)nn2CCCN2CCC(N3CCCC3=O)CC2)C1` [Example 45, Morpholine-4-carboxylic acid 5-(5-methanesulfonyl-1-{3-[4-(2-oxo-pyrrolidin-1-yl)-piperidin-1-yl]-propyl}-4,5,6,7-tetrahydro-1H-pyrazolo[4,3-c]pyridin-3-yl)-2-trifluoromethyl-benzylamide], the IC50 was determined as 80 nM.

For the compound `CSC(=O)NCc1cc(-c2nn(CCCN3CCC(N4CCCC4=O)CC3)c3c2CN(S(C)(=O)=O)CC3)ccc1C(F)(F)F` [Example 46, [5-(5-Methanesulfonyl-1-{3-[4-(2-oxo-pyrrolidin-1-yl)-piperidin-1-yl]-propyl}-4,5,6,7-tetrahydro-1H-pyrazolo[4,3-c]pyridin-3-yl)-2-trifluoromethyl-benzyl]-thiocarbamic acid S-methyl ester], the IC50 was 410 nM.

On to `CC(C)CCNCc1cc(-c2nn(CCCN3CCC(N4CCCC4=O)CC3)c3c2CN(S(C)(=O)=O)CC3)ccc1C(F)(F)F` [Example 47, 1-{1-[3-(5-Methanesulfonyl-3-{3-[(3-methyl-butylamino)-methyl]-4-trifluoromethyl-phenyl}-4,5,6,7-tetrahydro-pyrazolo[4,3-c]pyridin-1-yl)-propyl]-piperidin-4-yl}-pyrrolidin-2-one], for which the half-inhibitory concentration (IC50) was determined as 300 nM.

Consider `CS(=O)(=O)N1CCc2c(c(-c3ccc(C(F)(F)F)c(CNC(=O)c4ccc(Br)s4)c3)nn2CC(O)CN2CCC(N3CCCC3=O)CC2)C1` (centres unmarked) [Example 48, 5-Bromo-thiophene-2-carboxylic acid 5-(1-{2-hydroxy-3-[4-(2-oxo-pyrrolidin-1-yl)-piperidin-1-yl]-propyl}-5-methanesulfonyl-4,5,6,7-tetrahydro-1H-pyrazolo[4,3-c]pyridin-3-yl)-2-trifluoromethyl-benzylamide], for which the IC50 was found to be 30 nM.

With `Cc1ccsc1C(=O)NCc1cc(-c2nn(CC(O)CN3CCC(N4CCCC4=O)CC3)c3c2CN(S(C)(=O)=O)CC3)ccc1C(F)(F)F` (centres unmarked) [Example 49, 3-Methyl-thiophene-2-carboxylic acid 5-(1-{2-hydroxy-3-[4-(2-oxo-pyrrolidin-1-yl)-piperidin-1-yl]-propyl}-5-methanesulfonyl-4,5,6,7-tetrahydro-1H-pyrazolo[4,3-c]pyridin-3-yl)-2-trifluoromethyl-benzylamide], the IC50 came to 160 nM.

For the compound `CS(=O)(=O)N1CCc2c(c(-c3ccc(C(F)(F)F)c(CNC(=O)c4cc5c(s4)CCC5)c3)nn2CC(O)CN2CCC(N3CCCC3=O)CC2)C1` (centres unmarked) [Example 50, 5,6-Dihydro-4H-cyclopenta[b]thiophene-2-carboxylic acid 5-(1-{2-hydroxy-3-[4-(2-oxo-pyrrolidin-1-yl)-piperidin-1-yl]-propyl}-5-methanesulfonyl-4,5,6,7-tetrahydro-1H-pyrazolo[4,3-c]pyridin-3-yl)-2-trifluoromethyl-benzylamide], the IC50 was 30 nM.

With `Cc1nnsc1C(=O)NCc1cc(-c2nn(CC(O)CN3CCC(N4CCCC4=O)CC3)c3c2CN(S(C)(=O)=O)CC3)ccc1C(F)(F)F` (centres unmarked) [Example 51, 4-Methyl-[1,2,3]thiadiazole-5-carboxylic acid 5-(1-{2-hydroxy-3-[4-(2-oxo-pyrrolidin-1-yl)-piperidin-1-yl]-propyl}-5-methanesulfonyl-4,5,6,7-tetrahydro-1H-pyrazolo[4,3-c]pyridin-3-yl)-2-trifluoromethyl-benzylamide], the IC50 worked out at 200 nM.

With `CS(=O)(=O)N1CCc2c(c(-c3ccc(C(F)(F)F)c(CNC(=O)c4ccco4)c3)nn2CC(O)CN2CCC(N3CCCC3=O)CC2)C1` (centres unmarked) [Example 52, Furan-2-carboxylic acid 5-(1-{2-hydroxy-3-[4-(2-oxo-pyrrolidin-1-yl)-piperidin-1-yl]-propyl}-5-methanesulfonyl-4,5,6,7-tetrahydro-1H-pyrazolo[4,3-c]pyridin-3-yl)-2-trifluoromethyl-benzylamide], the IC50 is 190 nM.

Turning to `CS(=O)(=O)N1CCc2c(c(-c3ccc(C(F)(F)F)c(CNC(=O)c4ccccn4)c3)nn2CC(O)CN2CCC(N3CCCC3=O)CC2)C1` (centres unmarked) [Example 53, Pyridine-2-carboxylic acid 5-(1-{2-hydroxy-3-[4-(2-oxo-pyrrolidin-1-yl)-piperidin-1-yl]-propyl}-5-methanesulfonyl-4,5,6,7-tetrahydro-1H-pyrazolo[4,3-c]pyridin-3-yl)-2-trifluoromethyl-benzylamide], the IC50 was 190 nM.
